Drawing on patent publication US20170022171A1, “2,5-DISUBSTITUTED CYCLOPENTANECARBOXYLIC ACIDS AND THEIR USE” (Bayer Pharma Aktiengesellschaft, priority 2014, published 2017), this text covers IC50 for twelve compounds.

What all share (type): biochemical
One assay concerns the target T1, mouse MMP-9 (Mus musculus, UniProt P41245).
T1 construct: purchased R&D Systems 909-MP
Kind of assay: In vitro mouse MMP-9 inhibition test. The text has this: (§1) The MMP-mediated amidolytic cleavage of a suitable peptide substrate leads to an increase in fluorescent light here too. The signal intensity of the fluorescent light is directly proportional to the enzyme activity. The active concentration of a test compound at which half the enzyme is inhibited (50% signal intensity of the fluorescent light) is reported as the IC50 value.
(§2) Recombinant mouse MMP-9 (from R&D Systems, 909-MP) is chemically activated in accordance with the manufacturer's instructions using APMA. 1 μl of the test compound to be analysed (as a solution in DMSO, suitable concentrations, for example, 1 nM to 30 μM) is pipetted into 24 μl of activated enzyme (final concentration, for example, 0.1 nM) in reaction buffer (50 mM Tris/HCl pH 7.5, 10 mM CaCl2, 150 mM NaCl, 0.05% Brij®-35) in a white 384-hole microtiter plate (MTP). The enzymatic reaction is started by adding the intramolecularly quenched Mca-Pro-Leu-Gly-Leu-Dpa(Dnp)-Ala-Arg-NH2 substrate (final concentration, for example, 5 μM; R&D Systems, ES-001), so as to result in a total test volume of 50 The course of the MMP-9 reaction is measured by measuring the fluorescence intensity (excitation 320 nm, emission 410 nm) over a suitable period of time (for example over 120 min at a temperature of 32° C.).

The target in the next assay is T2, mouse MMP-2 (Mus musculus, UniProt P33434).
T2 construct: purchased R&D Systems 924-MP
T2 sequence (P33434 110-662): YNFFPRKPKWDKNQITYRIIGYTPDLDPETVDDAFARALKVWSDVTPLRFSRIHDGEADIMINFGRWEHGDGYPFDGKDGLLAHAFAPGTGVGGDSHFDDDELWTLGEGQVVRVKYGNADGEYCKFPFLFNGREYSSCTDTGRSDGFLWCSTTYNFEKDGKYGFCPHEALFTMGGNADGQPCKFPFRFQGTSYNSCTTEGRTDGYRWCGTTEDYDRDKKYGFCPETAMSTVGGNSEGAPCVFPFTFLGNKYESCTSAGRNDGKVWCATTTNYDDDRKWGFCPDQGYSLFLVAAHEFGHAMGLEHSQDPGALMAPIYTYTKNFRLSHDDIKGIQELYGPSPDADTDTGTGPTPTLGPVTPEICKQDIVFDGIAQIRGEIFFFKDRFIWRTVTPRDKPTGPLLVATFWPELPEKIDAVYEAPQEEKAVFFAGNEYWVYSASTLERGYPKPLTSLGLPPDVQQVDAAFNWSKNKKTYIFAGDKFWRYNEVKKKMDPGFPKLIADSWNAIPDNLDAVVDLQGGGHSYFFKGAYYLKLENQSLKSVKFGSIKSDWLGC
The assay is described as follows: In vitro mouse MMP-2 inhibition test.
Description: as §1
as §2, with “mouse MMP-2” for “mouse MMP-9”, “Systems, 924-MP)” for “Systems, 909-MP)”, “example, 10” for “example, 5”, “the MMP-2” for “the MMP-9”

The target of another assay is T3, mouse MMP-3 (Mus musculus, UniProt P28862).
T3 construct: purchased R&D Systems 548-MP
T3 sequence (P28862 100-477): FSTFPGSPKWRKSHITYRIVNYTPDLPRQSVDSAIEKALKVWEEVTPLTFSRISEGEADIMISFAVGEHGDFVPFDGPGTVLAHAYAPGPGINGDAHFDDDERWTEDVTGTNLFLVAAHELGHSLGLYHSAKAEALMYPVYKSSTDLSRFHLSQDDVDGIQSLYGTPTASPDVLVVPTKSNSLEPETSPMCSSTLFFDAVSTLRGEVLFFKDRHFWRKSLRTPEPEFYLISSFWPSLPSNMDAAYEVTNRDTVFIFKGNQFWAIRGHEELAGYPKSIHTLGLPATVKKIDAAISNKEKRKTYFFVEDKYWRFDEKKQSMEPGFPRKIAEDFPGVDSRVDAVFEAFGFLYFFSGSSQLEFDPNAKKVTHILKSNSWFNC
Kind of assay: In vitro mouse MMP-3 inhibition test.
Description: as §1
(§3) Recombinant mouse MMP-3 (from R&D Systems, 548-MP) is chemically activated in accordance with the manufacturer's instructions using APMA. 1 μl of the test compound to be analysed (as a solution in DMSO, suitable concentrations, for example, 1 nM to 30 μM) is pipetted into 24 μl of activated enzyme (final concentration, for example, 0.5 nM) in reaction buffer (50 mM Tris/HCl pH 7.5, 10 mM CaCl2, 150 mM NaCl, 0.05% Brij®-35) in a white 384-hole microtiter plate (MTP). The enzymatic reaction is started by adding the intramolecularly quenched Mca-Arg-Pro-Lys-Pro-Val-Glu-Nval-Trp-Arg-Lys(Dnp)-NH2 substrate (final concentration, for example, 5 μM; R&D Systems, ES-002), so as to result in a total test volume of 50 μl. The course of the MMP-3 reaction is measured by measuring the fluorescence intensity (excitation 320 nm, emission 410 nm) over a suitable period of time (for example over 120 min at a temperature of 32° C.).

The next assay has as its target T4, mouse MMP-7 (Mus musculus, UniProt Q10738).
T4 construct: purchased R&D Systems 2967-MP
T4 sequence (Q10738 95-264): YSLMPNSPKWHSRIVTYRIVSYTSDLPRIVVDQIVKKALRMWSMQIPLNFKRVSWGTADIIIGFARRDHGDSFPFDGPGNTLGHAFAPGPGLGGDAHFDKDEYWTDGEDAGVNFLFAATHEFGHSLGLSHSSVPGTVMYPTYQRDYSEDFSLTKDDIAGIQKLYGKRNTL
The assay is described as follows: In vitro mouse MMP-7 inhibition test.
Description: as §1
as §3, with “MMP-7” for “MMP-3”, “2967-MP)” for “548-MP)”, “Mca-Lys-Pro-Leu-Gly-Leu-Dpa(Dnp)-Ala-Arg-NH2” for “Mca-Arg-Pro-Lys-Pro-Val-Glu-Nval-Trp-Arg-Lys(Dnp)-NH2”, “ES-010),” for “ES-002),”

T1 sequence (P41245 108-730): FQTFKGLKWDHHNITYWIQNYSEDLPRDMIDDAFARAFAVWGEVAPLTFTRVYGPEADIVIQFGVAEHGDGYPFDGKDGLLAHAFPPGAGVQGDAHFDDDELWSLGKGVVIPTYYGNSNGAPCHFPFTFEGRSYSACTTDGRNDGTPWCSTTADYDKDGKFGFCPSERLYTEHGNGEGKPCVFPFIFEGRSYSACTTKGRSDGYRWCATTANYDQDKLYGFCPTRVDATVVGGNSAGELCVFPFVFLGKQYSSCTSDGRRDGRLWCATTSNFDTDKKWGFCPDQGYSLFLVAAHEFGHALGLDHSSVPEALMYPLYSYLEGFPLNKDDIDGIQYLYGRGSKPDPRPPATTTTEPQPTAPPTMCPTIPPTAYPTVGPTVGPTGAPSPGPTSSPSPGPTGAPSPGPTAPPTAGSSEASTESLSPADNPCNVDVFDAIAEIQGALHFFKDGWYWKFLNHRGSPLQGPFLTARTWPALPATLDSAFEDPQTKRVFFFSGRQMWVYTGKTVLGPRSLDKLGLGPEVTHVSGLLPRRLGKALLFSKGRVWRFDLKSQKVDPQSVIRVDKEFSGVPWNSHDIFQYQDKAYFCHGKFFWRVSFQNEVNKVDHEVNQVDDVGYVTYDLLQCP

For `CCCCCOc1ccc(C(=O)[C@H]2CC[C@@H](Cn3nnc4ccc(C)cc4c3=O)[C@@H]2C(=O)O)cc1` (racemic) [Example 123, (+/−)-(1RS,2SR,5RS)-2-[(6-Methyl-4-oxo-1,2,3-benzotriazin-3(4H)-yl)methyl]-5-[4-(pentyloxy)benzoyl]cyclopentanecarboxylic acid], the IC50 (as a rule, the concentration that gives 50% inhibition) against mouse MMP-9 is 770 nM; against mouse MMP-2 it was 370 nM; at mouse MMP-3, 1800 nM; against mouse MMP-7, 100 nM.
As for `O=C(O)[C@H]1[C@H](Cn2nnc3ccccc3c2=O)CC[C@@H]1C(=O)c1ccc(OCCC2CCCCC2)cc1` (racemic) [Example 5, (+/−)-(1RS,2RS,5SR)-2-[4-(2-Cyclohexylethoxy)benzoyl]-5-[(4-oxo-1,2,3-benzotriazin-3(4H)-yl)methyl]cyclopentanecarboxylic acid], the IC50 was found to be 930 nM against mouse MMP-9, 270 nM against mouse MMP-2, 1300 nM against mouse MMP-3 and 160 nM against mouse MMP-7.
The like results for `O=C(O)[C@H]1[C@H](Cn2nnc3ccccc3c2=O)CC[C@@H]1C(=O)c1ccc(OCc2ccc(F)cc2)cc1` (racemic) [Example 1, (+/−)-(1RS,2RS,5SR)-2-{4-[(4-Fluorobenzyl)oxy]benzoyl}-5-[(4-oxo-1,2,3-benzotriazin-3(4H)-yl)methyl]cyclopentanecarboxylic acid] were, in that order, 31 nM, 14 nM, 160 nM and 46 nM.
Regarding `O=C(O)[C@@H]1[C@@H](Cn2nnc3ccc(C(F)(F)F)cc3c2=O)CC[C@H]1C(=O)c1ccc(SCc2ccc(Cl)c(Cl)c2)cc1` (single isomer, unassigned) [Example 80, (+)-(1RS,2RS,5SR)-2-{4-[(3,4-Dichlorobenzyl)sulphanyl]benzoyl}-5-{[4-oxo-6-(trifluoromethyl)-1,2,3-benzotriazin-3(4H)-yl]methyl}cyclopentanecarboxylic acid], the IC50 against mouse MMP-9 was > 40000 nM; on mouse MMP-2, 1500 nM; against mouse MMP-3 it was 2500 nM; at mouse MMP-7, 130 nM.
As to `O=C(O)[C@H]1[C@H](Cn2nnc3ccc(C(F)(F)F)cc3c2=O)CC[C@@H]1C(=O)c1ccc(OCCCc2ccccc2)cc1` (racemic) [Example 39, (+/−)-(1RS,2SR,5RS)-2-{[4-Oxo-6-(trifluoromethyl)-1,2,3-benzotriazin-3(4H)-yl]methyl}-5-[4-(3-phenylpropoxy)benzoyl]cyclopentanecarboxylic acid], the IC50 at mouse MMP-9 was > 40000 nM; against mouse MMP-2, 3800 nM; at mouse MMP-3, 9500 nM; at mouse MMP-7 it was 230 nM.
Turning to `Cc1ccc2nnn(C[C@H]3CC[C@@H](C(=O)c4ccc(OCC5CCCCC5)cc4)[C@@H]3C(=O)O)c(=O)c2c1` (single isomer, unassigned) [Example 117, (+)-(1RS,2RS,5SR)-2-[4-(Cyclohexylmethoxy)benzoyl]-5-[(6-methyl-4-oxo-1,2,3-benzotriazin-3(4H)-yl)methyl]cyclopentanecarboxylic acid], the IC50 against mouse MMP-9 is 230 nM; against mouse MMP-2, 130 nM; against mouse MMP-3, 470 nM; against mouse MMP-7 it was 16 nM.
Consider `O=C(O)[C@H]1[C@H](Cn2nnc3ccc(C(F)(F)F)cc3c2=O)CC[C@@H]1C(=O)c1ccc(OCc2ccccc2)cc1` (racemic) [Example 11, (+/−)-(1RS,2RS,5SR)-2-[4-(Benzyloxy)benzoyl]-5-{[4-oxo-6-(trifluoromethyl)-1,2,3-benzotriazin-3(4H)-yl]methyl}cyclopentanecarboxylic acid], for which the IC50 was determined as 61 nM against mouse MMP-9, 250 nM against mouse MMP-2, 590 nM at mouse MMP-3 and 23 nM against mouse MMP-7.
`Cc1ccc2nnn(C[C@@H]3CC[C@H](C(=O)c4ccc(OCc5cccc(OC(F)(F)F)c5)cc4)[C@H]3C(=O)O)c(=O)c2c1` (racemic) [Example 109, (+/−)-(1RS,2SR,5RS)-2-[(6-Methyl-4-oxo-1,2,3-benzotriazin-3(4H)-yl)methyl]-5-(4-{[3-(trifluoromethoxy)benzyl]oxy}benzoyl)cyclopentanecarboxylic acid]: the IC50 amounted to 910 nM against mouse MMP-9, 1300 nM against mouse MMP-2, 1100 nM at mouse MMP-3 and 250 nM against mouse MMP-7.
For `Cc1ccc2nnn(C[C@@H]3CC[C@H](C(=O)c4ccc(OCc5cccc(Cl)c5)cc4)[C@H]3C(=O)O)c(=O)c2c1` (racemic) [Example 103, (+/−)-(1RS,2RS,5SR)-2-{4-[(3-Chlorobenzyl)oxy]benzoyl}-5-[(6-methyl-4-oxo-1,2,3-benzotriazin-3(4H)-yl)methyl]cyclopentanecarboxylic acid], in that order: 550 nM, 370 nM, 1100 nM and 28 nM.
On to `O=C(O)[C@H]1[C@H](Cn2nnc3ccccc3c2=O)CC[C@@H]1C(=O)c1ccc(OCc2ccc(Cl)c(Cl)c2)cc1` (racemic) [Example 3, (+/−)-(1RS,2RS,5SR)-2-{4-[(3,4-Dichlorobenzyl)oxy]benzoyl}-5-[(4-oxo-1,2,3-benzotriazin-3(4H)-yl)methyl]cyclopentanecarboxylic acid], for which the 50% inhibitory concentration (IC50) against mouse MMP-9 came out at 2600 nM; at mouse MMP-2, 290 nM; at mouse MMP-3, 1900 nM; on mouse MMP-7, 430 nM.
On to `O=C(O)[C@@H]1[C@@H](Cn2nnc3ccc(C(F)(F)F)cc3c2=O)CC[C@H]1C(=O)c1ccc(OCc2cccc(Cl)c2)cc1` (single isomer, unassigned) [Example 23, (+)-(1RS,2RS,5SR)-2-{4-[(3-Chlorobenzyl)oxy]benzoyl}-5-{[4-oxo-6-(trifluoromethyl)-1,2,3-benzotriazin-3(4H)-yl]methyl}cyclopentanecarboxylic acid], for which the IC50 was 1700 nM on mouse MMP-9, 2400 nM on mouse MMP-2, 8000 nM on mouse MMP-3 and 69 nM on mouse MMP-7.
The like results for `COC(=O)Nc1cccc(COc2ccc(C(=O)[C@@H]3CC[C@H](Cn4nnc5ccc(C(F)(F)F)cc5c4=O)[C@H]3C(=O)O)cc2)c1` (stereo in doubt) [Example 31, (+)-(1RS,2RS,5SR)-2-[4-({3-[(Methoxycarbonyl)amino]benzyl}oxy)benzoyl]-5-{[4-oxo-6-(trifluoromethyl)-1,2,3-benzotriazin-3(4H)-yl]methyl}cyclopentanecarboxylic acid] were, in that order, 4300 nM, 990 nM, 3900 nM and 44 nM.
